Among the data in patent US20240344241A1, “PROTEINACEOUS MOLECULES AND USES THEREFOR” (THE UNIVERSITY OF QUEENSLAND, priority 2021, published 2024) are Ki values, retold here.

For the experiment, the target named is T1, Human β-FXIIa (Homo sapiens, UniProt P00748).
T1 construct: Human β-FXIIa was obtained from Molecular Innovations, together with human FXa, human FXIa, human α-thrombin, and human plasma kallikrein; purchased Molecular Innovations; host or cells: purified from human plasma
Kind of experiment: FXIIa competitive inhibition assay, fluorescent substrate Boc-QGR-MCA. It is filed as biochemical. The source says:
Cyclic [I7F]MCoFx1 (also referred to as cyclic MCoFx6) was synthesized using solid phase peptide synthesis ([[…]] [SEQ ID NO: 97]). For this inhibitor, Tyr33 was mutated back to serine as per the original mRNA display screen (FIG. 1). Cyclic MCoFx6 was screened using a competitive inhibition assay, with the substrate being changed from a colorimetric substrate (Ac-QRFR-pNA in the data of Tables 7 and 10) to a fluorescent substrate (Boc-QGR-MCA) to allow the assay to be run with a lower concentration of enzyme. The assay was performed as described for Examples 2 and 3, except that the FXIIa concentration was 0.5 nM and the substrate concentration was 50 μM (KM=187 μM).
The new variants were screened using competitive inhibition assays, with the substrate being changed from a colorimetric substrate (Ac-QRFR-pNA in the data of Tables 7 and 10) to a fluorescent substrate (Boc-QGR-MCA) to allow the assay to be run with a lower concentration of enzyme. Assays were performed as described for Examples 2 and 3, except that the FXIIa concentration was 0.5 nM and the substrate concentration was 50 μM (KM=187 μM). […] The effect of amino acid substitutions within loop 2 (Arg12, Arg13), loop 5 (Ala25, Arg27) or loop 6 (Asp34) on the activity of cyclic MCoFx7 against FXIIa was determined (refer to Table 14). […] Additionally, mutating Arg to Glu (reversing the side chain charge) only led to two-fold weaker activity. The adjacent residue Arg13 could also be mutated to Lys with no change in activity. Within loop 5, mutating Ala25 to Lys produced a slight gain in activity, whereas the Ala to Pro mutation led to a slight decrease in activity. Both mutations at Arg27 led to losses in activity in the order of two-fold (His) or 3.2-fold (Gly).
The activity of acyclic and cyclic MCoFx1-5 and analogues thereof was assessed in competitive inhibition assays, as previously described in Swedberg et al. (2016) J Med Chem, 59: 7287-7292. Human β-FXIIa was obtained from Molecular Innovations, together with human FXa, human FXIa, human α-thrombin, and human plasma kallikrein. Human cationic trypsin and human plasmin were obtained from Sigma-Aldrich, and recombinant human matriptase was sourced from R&D Systems. Recombinant human urokinase (uPA) and recombinant human tissue plasminogen activator (tPA) were expressed in Expi293 cells, as previously described in Li et al. (2019) Chembiochem, 20: 46-50. FXIIa inhibition assays were performed in clear, low-binding 96-well plates using 250 μL (final volume) of assay buffer (0.1 M Tris-HCl pH 8.0, 0.1 M NaCl, 10 mM CaCl2 and 0.005% Triton X-100). Inhibitors were serially diluted and incubated with 10 nM FXIIa at room temperature to reach equilibrium. After adding 100 μM Ac-QRFR-pNA substrate (KM=162 μM), enzymatic activity was measured by monitoring release of the pNA moiety using a TECAN infinite M1000 Pro plate reader (A=405 nm, reading interval, 10 s; assay time course, 7 min). Assays were conducted in three times in duplicate. Substrate kinetic constants (Michaelis-Menten) and inhibition constants (Morrison K) were determined by non-linear regression using Prism 7 (GraphPad). Selectivity assays with off-target proteases were performed in a similar way, except that different concentrations of enzyme and substrate were used, as indicated in Table 16. For assays using a fluorescent substrate (peptide-4-methylcoumaryl-7-amide, MCA), black low-binding 96-well plates were used and activity was measured using a TECAN infinite M1000 pro plate reader (λex 360 nm, λem 460 nm, reading interval, 30 s; assay time course, 5-30 min).

Bridge positions count the residues as written; N and C are the ends. Peptide text beside a SMILES is read from it.

T1 sequence (P00748 373-615 limits assumed, other chains not shown): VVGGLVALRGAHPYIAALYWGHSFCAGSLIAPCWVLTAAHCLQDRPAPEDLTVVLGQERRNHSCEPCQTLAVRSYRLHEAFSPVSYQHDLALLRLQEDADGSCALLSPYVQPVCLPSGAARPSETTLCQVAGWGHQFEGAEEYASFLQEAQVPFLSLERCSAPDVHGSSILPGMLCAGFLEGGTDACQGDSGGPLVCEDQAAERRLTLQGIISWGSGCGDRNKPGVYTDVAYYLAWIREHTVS

The Ki is a dissociation constant, usually derived from enzyme kinetics or from competition with a known ligand. Low values mean higher affinity, high ones lower affinity. `CC[C@H](C)[C@@H]1NC(=O)CNC(=O)CNC(=O)[C@H](CC(=O)O)NC(=O)[C@H](CO)NC(=O)CNC(=O)[C@H](CO)NC(=O)CNC(=O)[C@@H]2CSSC[C@@H]3NC(=O)[C@H](CC(=O)O)NC(=O)[C@H](CO)NC(=O)[C@H](CC(=O)O)NC(=O)[C@H](CCCNC(=N)N)NC(=O)[C@H](CCCNC(=N)N)NC(=O)[C@@H]4CSSC[C@H](NC(=O)[C@H]([C@@H](C)CC)NC(=O)[C@H](CSSC[C@H](NC1=O)C(=O)N1CCC[C@H]1C(=O)N[C@@H](CCCNC(=N)N)C(=O)N[C@@H]([C@@H](C)CC)C(=O)NCC(=O)N[C@@H](CCCNC(=N)N)C(=O)N[C@@H](CC(C)C)C(=O)N4)NC(=O)[C@H](C)NC(=O)CNC(=O)[C@@H]1CCCN1C3=O)C(=O)N[C@@H](CCCNC(=N)N)C(=O)N[C@@H](C)C(=O)N[C@@H]([C@@H](C)O)C(=O)NCC(=O)N[C@@H](Cc1ccccc1)C(=O)N2` [Cyclic [R27G]MCoFx7] (cyclo(ACICRATGFCGSGSDGGICPRIGRLCRRDSDCPG); disulfide 2-19, 4-26, 10-32) gave a Ki of 0.21 ± 0.008 nM.

`CC[C@H](C)[C@@H]1NC(=O)CNC(=O)CNC(=O)[C@H](CC(=O)O)NC(=O)[C@H](CO)NC(=O)CNC(=O)[C@H](CO)NC(=O)CNC(=O)[C@@H]2CSSC[C@@H]3NC(=O)[C@H](CC(=O)O)NC(=O)[C@H](CO)NC(=O)[C@H](CC(=O)O)NC(=O)[C@H](CCCNC(=N)N)NC(=O)[C@H](CCCNC(=N)N)NC(=O)[C@@H]4CSSC[C@H](NC(=O)[C@H]([C@@H](C)CC)NC(=O)[C@H](CSSC[C@H](NC1=O)C(=O)N1CCC[C@H]1C(=O)N[C@@H](CCCNC(=N)N)C(=O)N[C@@H]([C@@H](C)CC)C(=O)NCC(=O)N[C@@H](CCCNC(=N)N)C(=O)N[C@@H](CC(C)C)C(=O)N4)NC(=O)[C@H](C)NC(=O)CNC(=O)[C@@H]1CCCN1C3=O)C(=O)N[C@@H](CCCNC(=N)N)C(=O)N[C@@H](CCCCN)C(=O)N[C@@H]([C@@H](C)O)C(=O)N[C@@H](CCCNC(=N)N)C(=O)N[C@@H](Cc1ccccc1)C(=O)N2` [Cyclic [A25K]MCoFx7] (cyclo(ACICRKTRFCGSGSDGGICPRIGRLCRRDSDCPG); disulfide 2-19, 4-26, 10-32) showed a Ki of 0.046 ± 0.005 nM. For `CC[C@H](C)[C@@H]1NC(=O)CNC(=O)CNC(=O)[C@H](CC(=O)O)NC(=O)[C@H](CO)NC(=O)CNC(=O)[C@H](CO)NC(=O)CNC(=O)[C@@H]2CSSC[C@@H]3NC(=O)[C@H](CC(=O)O)NC(=O)[C@H](CO)NC(=O)[C@H](CC(=O)O)NC(=O)[C@H](CCCNC(=N)N)NC(=O)[C@H]([C@@H](C)O)NC(=O)[C@@H]4CSSC[C@H](NC(=O)[C@H]([C@@H](C)CC)NC(=O)[C@H](CSSC[C@H](NC1=O)C(=O)N1CCC[C@H]1C(=O)N[C@@H](CCCNC(=N)N)C(=O)N[C@@H]([C@@H](C)CC)C(=O)NCC(=O)N[C@@H](CCCNC(=N)N)C(=O)N[C@@H](CC(C)C)C(=O)N4)NC(=O)[C@H](C)NC(=O)CNC(=O)[C@@H]1CCCN1C3=O)C(=O)N[C@@H](CCCNC(=N)N)C(=O)N[C@@H](C)C(=O)N[C@@H]([C@@H](C)O)C(=O)N[C@@H](CCCNC(=N)N)C(=O)N[C@@H](Cc1ccccc1)C(=O)N2` [Cyclic [R12T]MCoFx7] (cyclo(ACICRATRFCGSGSDGGICPRIGRLCTRDSDCPG); disulfide 2-19, 4-26, 10-32), the Ki came to 0.065 ± 0.005 nM. As to `CC[C@H](C)[C@@H]1NC(=O)CNC(=O)CNC(=O)[C@H](CC(=O)O)NC(=O)[C@H](CO)NC(=O)CNC(=O)[C@H](CO)NC(=O)CNC(=O)[C@@H]2CSSC[C@@H]3NC(=O)[C@H](CC(=O)O)NC(=O)[C@H](CO)NC(=O)[C@H](CC(=O)O)NC(=O)[C@H](CCCNC(=N)N)NC(=O)[C@H](CCC(=O)O)NC(=O)[C@@H]4CSSC[C@H](NC(=O)[C@H]([C@@H](C)CC)NC(=O)[C@H](CSSC[C@H](NC1=O)C(=O)N1CCC[C@H]1C(=O)N[C@@H](CCCNC(=N)N)C(=O)N[C@@H]([C@@H](C)CC)C(=O)NCC(=O)N[C@@H](CCCNC(=N)N)C(=O)N[C@@H](CC(C)C)C(=O)N4)NC(=O)[C@H](C)NC(=O)CNC(=O)[C@@H]1CCCN1C3=O)C(=O)N[C@@H](CCCNC(=N)N)C(=O)N[C@@H](C)C(=O)N[C@@H]([C@@H](C)O)C(=O)N[C@@H](CCCNC(=N)N)C(=O)N[C@@H](Cc1ccccc1)C(=O)N2` [Cyclic [R12E]MCoFx7] (cyclo(ACICRATRFCGSGSDGGICPRIGRLCERDSDCPG); disulfide 2-19, 4-26, 10-32), the affinity corresponds to a Ki of 0.13 ± 0.007 nM. `CC[C@H](C)[C@@H]1NC(=O)CNC(=O)CNC(=O)[C@H](CC(=O)O)NC(=O)[C@H](CO)NC(=O)CNC(=O)[C@H](CO)NC(=O)CNC(=O)[C@@H]2CSSC[C@@H]3NC(=O)[C@H](CC(=O)O)NC(=O)[C@H](CO)NC(=O)[C@H](CC(=O)O)NC(=O)[C@H](CCCCN)NC(=O)[C@H](CCCNC(=N)N)NC(=O)[C@@H]4CSSC[C@H](NC(=O)[C@H]([C@@H](C)CC)NC(=O)[C@H](CSSC[C@H](NC1=O)C(=O)N1CCC[C@H]1C(=O)N[C@@H](CCCNC(=N)N)C(=O)N[C@@H]([C@@H](C)CC)C(=O)NCC(=O)N[C@@H](CCCNC(=N)N)C(=O)N[C@@H](CC(C)C)C(=O)N4)NC(=O)[C@H](C)NC(=O)CNC(=O)[C@@H]1CCCN1C3=O)C(=O)N[C@@H](CCCNC(=N)N)C(=O)N[C@@H](C)C(=O)N[C@@H]([C@@H](C)O)C(=O)N[C@@H](CCCNC(=N)N)C(=O)N[C@@H](Cc1ccccc1)C(=O)N2` [Cyclic [R13K]MCoFx7] (cyclo(ACICRATRFCGSGSDGGICPRIGRLCRKDSDCPG); disulfide 2-19, 4-26, 10-32) showed a Ki of 0.068 ± 0.003 nM.
